In brackets after ≈: the same amount, converted by molar mass. Entries after “also recorded” stand apart in the source; their conditions may differ.

Data set [1] deals with bioluminescent Mtb. Briefly: MIC determination with bioluminescent Mtb. It counts as cell-based, Mycobacterium tuberculosis.
In data set [2] the test system is bioluminescent Mtb. In words: microbe, parasite or virus in culture. It counts as cell-based, Mycobacterium tuberculosis.
The conditions of data set [3]: MacArthur et al 1978; cited from earlier work.
Data set [4] concerns primary human macrophages. In words: Total protein accumulation in cell culture supernatants (Bradford). The note with it: macrophage supernatants, doxycycline groups.
For data set [5], the system named is primary human bronchial epithelial cells. Briefly: Total protein in bronchial epithelial cell culture supernatants (Bradford). The note with it: Bradford analysis, data not shown.
Data set [6] concerns MMP-1. The note with it: Rand et al 2009; cited from earlier work.
The test system of data set [7] is MMP-1. In words: MMP-1 secretion by stimulated primary human monocytes. It counts as cell-based. The note with it: Pam3Cys 5 μg/ml, 24 h.

Take `C[C@H]1c2cccc(O)c2C(=O)C2=C(O)[C@]3(O)C(=O)C(C(N)=O)=C(O)[C@@H](N(C)C)[C@@H]3[C@@H](O)[C@@H]21` [Doxycycline, doxycycline]: the “drop in relative light units” value with bioluminescent Mtb [1] (2.5 μg/ml doxycycline, at 2 days) turned out to be 1 log. The MIC in the data set on bioluminescent Mtb [1] (Mycobacterium tuberculosis, bioluminescent Mtb, confirmed by Resazurin, read-out: minimum inhibitory concentration (MIC)) amounted to 2.5 µg/mL (≈ 5.63 µM). The MBC/MIC ratio in the data set with bioluminescent Mtb [2] stood at 16. Besides, the MBC in the data set on bioluminescent Mtb [2] (Mycobacterium tuberculosis, 72 h, luminescence monitored over 3 days, read-out: minimum bactericidal concentration (MBC)) amounted to 40 µg/mL (≈ 90 µM). Further, the “peak concentration in serum” value in data set [3] is 3.2 µg/mL. The “protein accumulation in the cell culture supernatants” value in data set [4] is “the same in each group”. The “total protein in cell culture supernatants” value in data set [5] is “no different between groups”.
As to `Nc1ccc(C(=O)O)c(O)c1` [P-amino-salicylic acid], the “MMP-1 secretion by Mtb-infected macrophages” value in the data set on MMP-1 [6] is listed as “inhibits”.
With Pam3Cys, in the data set with MMP-1 [7], the MMP-1 secretion entry was “increased; also recorded: up-regulated MMP-1 equivalently to live Mtb”.

Source of the values: patent US9750789B2, “Use of matrix metalloproteinase inhibitors to treat tuberculosis” (priority 2011, dated 2017).
